Measurements reported in patent publication US4605674A, “Substituted acetophenones and compositions containing them” (Hoffmann-La Roche Inc., priority 1979, dated 1986).
In brackets after ≈: the same amount, converted by molar mass. Like-named read-outs stand apart in the source and are kept apart here.

Assays:
rhinovirus HGP = assay: Inhibition of viral cytopathogenic effect (c.p.e.) of rhinovirus HGP in HeLa cells; format: cell-based, human rhinoviruses; conditions: Enterovirus, 48 h, read-out: IC50 against rhinovirus HGP (concentration inhibiting the viral c.p.e. by 50%)
Method: A suspension of HeLa cells (6×10^4) was mixed with rhinovirus HGP (3×10^3 plaque forming units, PFU) and was plated in a microtest plate containing the compounds to be tested serially diluted. The cells were then cultured with Eagle's minimum essential medium containing 2% calf serum, 1% tryptose phosphate broth, 100 μg/ml of streptomycin sulfate and 20 unit/ml of penicillin G. Viral c.p.e. (cytopathogenic effect) was observed by a microscope after 2 days culture at 33° C.
The antiviral activity of the tested compounds is expressed by the concentration inhibiting the viral c.p.e. by 50% when compared to the control culture (IC50).

in vivo = conditions: mouse, DDY mice, single dose
Method: ^(1) DDY mice weighing 15-20 g were treated with a single dose of the
compound. Survivors were recorded on day 21.
^(2) Compounds were dissolved in dimethylsulfoxide.
^(3) Compounds were suspended with solution of 0.5% carboxymethyl

[1] = ip, i.p., dissolved in dimethylsulfoxide, day 21, read-out: LD50 i.p.
[2] = po, p.o., suspended in 0.5% carboxymethyl cellulose, day 21, read-out: LD50 p.o.

Compound | IC50 (rhinovirus HGP; HeLa) [µg/mL] | LD50 at 504 h (in vivo; [1]) [mg/kg] | LD50 at 504 h (in vivo; [2]) [mg/kg] | IC50 (rhinovirus HGP; HeLa cells, 2 days culture at 33° C.) [µg/mL]
COc1cc(O)c(C(=O)C=Cc2ccco2)c(OC)c1 [3-(2-furyl)-2'-hydroxy-4',6'-dimethoxyacrylophenone] | 0.06 to 0.2 (≈ 0.219 to 0.729 µM) | > 500 | > 1500 | –
COc1cc(O)c(C(=O)/C=C/c2cccc(OC)c2OC)c(OC)c1 [2'-hydroxy-2,3,4',6'-tetramethoxychalcone] | 0.1 (≈ 0.29 µM) | > 500 | > 1000 | –
CCC(=O)Oc1cc(OC)cc(OC)c1C(=O)C=Cc1ccco1 [3-(2-furyl)-2',4'-dimethoxy-6'-(propionyloxy)-acrylophenone] | 0.1 to 0.3 (≈ 0.303 to 0.908 µM) | > 500 | > 1000 | –
COc1cc(O)c(C(=O)/C=C/c2ccc(C#N)cc2)c(OC)c1 [4-cyano-2'-hydroxy-4',6'-dimethoxychalcone] | 0.3 (≈ 0.97 µM) | > 500 | > 1000 | –
COc1cccc(/C=C/C(=O)c2c(O)cc(OC)cc2OC)c1 [2'-hydroxy-3,4',6'-trimethoxychalcone] | 0.1 (≈ 0.318 µM) | > 500 | > 1000 | –
CCOc1cc(O)c(C(=O)C=Cc2ccc(C)o2)c(OC)c1 [4'-ethoxy-2'-hydroxy-6'-methoxy-3-(5-methyl-2-furyl)-acrylophenone] | 0.03 (≈ 0.0992 µM) | > 500 | > 1000 | –
CCCOc1cc(OC)cc(OC(=O)CC)c1C(=O)/C=C/c1ccc(OC)cc1 [4,4'-dimethoxy-2'-(propionyloxy)-6'-propoxychalcone] | 0.03 to 0.1 (≈ 0.0753 to 0.251 µM) | > 500 | > 1000 | –
CCC(=O)Oc1cc(OC)cc(OC)c1C(=O)/C=C/c1ccc(C)cc1 [2',4'-dimethoxy-4-methyl-6'-(propionyloxy)-chalcone] | 0.03 (≈ 0.0846 µM) | > 1000 | > 5000 | –
CCC(=O)Oc1cc(OC)cc(OC)c1C(=O)C=Cc1ccc(C)o1 [2',4'-dimethoxy-3-(5-methyl-2-furyl)-6'-(propionyloxy)-acrylophenone] | 0.03 to 0.1 (≈ 0.0871 to 0.29 µM) | > 500 | > 2000 | –
COc1cc(O)c(C(=O)/C=C/c2ccc(Cl)cc2)c(OC)c1 [4-chloro-2'-hydroxy-4',6'-dimethoxychalcone] | 0.02 to 0.06 (≈ 0.0627 to 0.188 µM) | > 1000 | > 5000 | –
CCC(=O)Oc1cc(OC)cc(OC)c1C(=O)C=Cc1ccc2c(c1)OCO2 [2',4'-dimethoxy-3,4-(methylenedioxy)-6'-(propionyloxy)-chalcone] | 0.1 (≈ 0.26 µM) | > 500 | > 1000 | –
C=CCOc1ccc(/C=C/C(=O)c2c(O)cc(OC)cc2OC)cc1 [4-(allyloxy)-2'-hydroxy-4',6'-dimethoxychalcone] | 0.03 to 0.1 (≈ 0.0881 to 0.294 µM) | > 500 | > 1000 | –
COc1cc(O)c(C(=O)/C=C/c2ccc(N(C)C)cc2)c(OC)c1 | 0.02 to 0.06 (≈ 0.0611 to 0.183 µM) | > 1000 | > 5000 | –
CCOc1cc(O)c(C(=O)/C=C/c2ccc(OC)cc2)c(OCC)c1 [2',4'-diethoxy-6'-hydroxy-4-methoxychalcone] | 0.03 to 0.1 (≈ 0.0876 to 0.292 µM) | > 1000 | > 2000 | –
C=CCOc1ccc(/C=C/C(=O)c2c(OC)cc(OC)cc2OC(=O)CC)cc1 [4-(allyloxy)-2',4'-dimethoxy-6'-(propionyloxy)-chalcone] | 0.03 to 0.1 (≈ 0.0757 to 0.252 µM) | > 500 | > 1000 | –
COc1cc(O)c(C(=O)/C=C/c2ccc(OC)c(O)c2)c(OC)c1 [2',3-dihydroxy-4,4',6'-trimethoxychalcone] | 0.1 to 0.3 (≈ 0.303 to 0.908 µM) | > 500 | > 1000 | –
COc1ccc(/C=C/C(=O)c2c(OC)cc(OC)cc2OC(=O)CCCC(=O)O)cc1 [2'-(4-carboxybutanoyloxy)-4,4',6'-trimethoxychalcone] | 0.03 (≈ 0.07 µM) | > 500 | > 2000 | –
CCC(=O)Oc1cc(OC)cc(OC)c1C(=O)C=Cc1cccs1 [2',4'-dimethoxy-6'-(propionyloxy)-3-(2-thienyl)-acrylophenone] | 0.1 to 0.3 (≈ 0.289 to 0.866 µM) | > 1000 | > 5000 | –
COc1cc(O)c(C(=O)/C=C/c2ccc(OC)c(OC)c2)c(OC)c1 [2'-hydroxy-3,4,4',6'-tetramethoxychalcone] | 0.1 to 0.3 (≈ 0.29 to 0.871 µM) | > 500 | > 500 | –
CCOc1ccc(/C=C/C(=O)c2c(O)cc(OC)cc2OCC)cc1 [2',4-diethoxy-6'-hydroxy-4'-methoxychalcone] | 0.1 (≈ 0.292 µM) | > 500 | > 5000 | –
COc1cc(O)c(C(=O)/C=C/c2ccc(N)cc2)c(OC)c1 [4-amino-2'-hydroxy-4',6'-dimethoxychalcone] | – | – | – | 0.03 to 0.1 (≈ 0.1 to 0.334 µM)
